Measured values: patent EP0257454A1, “Oil-in-water type fat emulsion of 1-[2-(2,4-dichlorophenyl)-3-methyl-1-pentenyl]-1H-imidazole” (MORISHITA PHARMACEUTICAL CO. LTD., priority 1986, dated 1988)

Test system: Candida albicans (clinically isolated strain)
Assay: Activity against Candida albicans infection in mice (survival days)
Assay type: in vivo
Conditions: Mice infected with Candida albicans, tail vein injection; summary of Table 1
Method: Activity against Candia albicans: Male CRJ:ICR mice (5 week age, 10 mice per group) were used. The fat emulsion obtained in Example 1; an injection solution (HCO 60 preparation) wherein the compound [I] was dissolved in a concentration of 2 % (w/v) in an aqueous solution of 10 % (w/v) of polyoxyethylene hydrogenated castor oil and 5 % (w/v) of glucose; and a solvent for the HCO 60 preparation (i.e. an aqueous solution of 10 % (w/v) of polyoxyethylene hydrogenated castor oil and 5 % (w/v) of glucose (as a control) The test mice was infected with Candida albicans (clinically isolated strain) by injecting the microorganism in an amount of 5 x 10^6 cells/mouse through the tail vein. One hour after the infection, the test injection products were each injected through the tail vein, and the survival days of mice were measured. The evaluation of effect was calculated by the following formula: Average survival days in each test group T/C = x 100 Average survival days in control group

Structure (SMILES): CCC(C)C(=Cn1ccnc1)c1ccc(Cl)cc1Cl (stereo not shown) [compound [I], 1-[2-(2,4-dichlorophenyl)-3-methyl-1-pentenyl]-1H-imidazole]
- effect against the infection (in words): remarkedly excellent effect against the infection
